From US20250108119A1, “NOVEL STEROID PAYLOADS, STEROID LINKERS, ADCs CONTAINING AND USE THEREOF” (IMMUNEXT, INC., priority 2021, published 2025)

Test system: human PBMC
Test: Cytokine production (IL-1β, IL-6) at 24 hr by human PBMC incubated with 1 ng/mL LPS
Type: cell-based
Settings: anti-VISTA conjugates, serial dilutions with respect to total ADC concentration (20-0.003 μg/mL), equivalent or reduced DAR
Summary of the method: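 Human PBMC were stimulated with 1 ng/mL LPS together with serial dilutions of steroid payloads or glucocorticoid conjugates, spanning up to 8,000 nM down to 0.032 nM depending on the series. IL-1β and IL-6 were measured at 24 hr from technical duplicates, with 1-2 donors. Values above the ULOQ were extrapolated.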

SMILES: C[C@]12C=CC(=O)C=C1CC[C@@H]1[C@@H]2[C@@H](O)C[C@@]2(C)[C@H]1C[C@H]1O[C@@H](c3ccc(CC4CC5(C4)CC(NC(=O)[C@H](CCC(=O)O)NC(=O)CNC(=O)CBr)C5)cc3)O[C@]12C(=O)CO (stereo partly drawn) [INX V, (S)-4-(2-(2-bromoacetamido)acetamido)-5-((6-(4-((6aR,6bS,7S,8aS,8bS,10R,11aR,12aS,12bS)-7-hydroxy-8b-(2-hydroxyacetyl)-6a,8a-dimethyl-4-oxo-2,4,6a,6b,7,8,8a,8b,11a,12,12a,12b-dodecahydro-1H-naphtho[2′,1′:4,5]indeno[1,2-d][1,3]dioxol-10-yl)benzyl)spiro[3.3]heptan-2-yl)amino)-5-oxopentanoic acid]
- potency in reducing IL-1β production: enhanced potency
